Experimental data as given in PubChem BioAssay (NCI).
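Values below derive from 48-hour exposures of cells grown in 96-well plates, with endpoints linearly interpolated between the two concentrations bracketing the appropriate inhibition level. Abbreviation: GI50, concentration required for 50% inhibition of growth. TGI is the concentration that stops growth completely.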

Legend:
Test in all cases: growth of human tumour cells (NCI), 48 h
CAKI-1 renal = tested on: CAKI-1 renal
COLO 205 colon = tested on: COLO 205 colon
HCT-116 colon = tested on: HCT-116 colon
HT29 colon = tested on: HT29 colon
IGROV1 ovarian = tested on: IGROV1 ovarian
MDA-MB-435 = tested on: MDA-MB-435
RXF 393 renal = tested on: RXF 393 renal
SK-MEL-28 melanoma = tested on: SK-MEL-28 melanoma
SN12C renal = tested on: SN12C renal
UO-31 renal = tested on: UO-31 renal

Row | Compound | TGI (CAKI-1 renal) [µM] | TGI (COLO 205 colon) [µM] | TGI (HCT-116 colon) [µM] | TGI (HT29 colon) [µM] | TGI (IGROV1 ovarian) [µM] | TGI (MDA-MB-435) [µM] | TGI (RXF 393 renal) [µM] | TGI (SK-MEL-28 melanoma) [µM] | TGI (SN12C renal) [µM] | TGI (UO-31 renal) [µM] | GI50 (CAKI-1 renal) [µM] | GI50 (COLO 205 colon) [µM] | GI50 (HCT-116 colon) [µM] | GI50 (HT29 colon) [µM] | GI50 (IGROV1 ovarian) [µM] | GI50 (MDA-MB-435) [µM] | GI50 (RXF 393 renal) [µM] | GI50 (SK-MEL-28 melanoma) [µM] | GI50 (SN12C renal) [µM] | GI50 (UO-31 renal) [µM]
1 | COc1ccc(CC2C3=C(CCCC3)CCN2C)cc1 (configuration not stated) | > 100 | > 100 | > 100 | > 100 | > 100 | > 100 | > 100 | > 100 | > 100 | > 100 |  |  |  |  |  |  |  |  |  | 
2 | O=C1c2cccnc2C(=O)c2c1c(C(=O)OCCN1CCOCC1)c1ccccn21 | 14.6 | 0.69 | 1.49 | 2.31 | 9.91 | 0.65 | 2.91 | 2.12 | 1.78 |  | < 0.0184 | 0.137 | 0.0417 | 0.316 | 0.0406 | 0.0387 | < 0.0187 | 0.0458 | < 0.01 | < 0.01
3 | CCc1ccc(Nc2cc(C)nc3nc(C)nn23)cc1 | > 100 | > 100 | > 100 | > 100 | > 100 | > 100 | > 100 | > 100 | > 100 | > 100 | 40.1 | 66.9 | 80.1 | 39.8 | 61.2 | 53.8 | 19.3 | 48.8 | 46.1 | 23.6
4 | CC(=O)c1ccc(NCN2C(=O)c3ccccc3C2=O)cc1 | > 100 | > 100 | > 100 | > 100 | > 100 | > 100 | > 100 | > 100 | > 100 | > 100 |  |  |  |  |  |  |  |  |  | 
5 | COc1ccc(/C=C/C(=O)c2ccc(Nc3ccnc4cc(Cl)ccc34)cc2)cc1 | > 100 | > 100 | > 100 | > 100 | > 100 | > 100 | > 100 | > 100 | > 100 | > 100 | > 100 | 70.2 | 0.412 | 4.2 | > 100 | 65.6 | > 100 | > 100 | > 100 | > 100
6 | C[C@@]1(N2C(=O)OC[C@@H]2c2ccccc2)C(=O)N([C@H](CC(=O)N2CCC(N3CCCCC3)CC2)C(=O)NCc2cccc(C(F)(F)F)c2)[C@@H]1/C=C/c1ccccc1 | 6.55 | 3.58 | 3.51 | 5.7 | 8.49 | 3.26 | 4.51 | 3.51 | 4.31 | 3.52 | 2.3 | 1.8 | 1.93 | 2.31 | 2.73 | 1.74 | 2.1 | 1.8 | 2 | 1.79
7 | COC(=O)c1ccc(C2SCC(=O)N2NC(=O)C(O)c2ccccc2)cc1 (configuration not stated) | > 100 | > 100 | > 100 | > 100 | > 100 | > 100 | > 100 | > 100 | > 100 | > 100 | > 100 | > 100 | > 100 | > 100 | > 100 | > 100 | > 100 | > 100 | > 100 | > 100
8 | COc1cc(C2C(C#N)=C(N)Oc3cc(O)ccc32)cc(OC)c1OC (configuration not stated) | > 100 | 4.1 | > 100 | 11.8 | > 100 | 0.643 | 1.99 | > 100 | > 100 | > 100 | 0.97 | 0.583 | 0.428 | 0.39 | 2.19 | 0.147 | 0.362 | 0.86 | 0.827 | 3.84
9 | C/C(=N\NC(=O)c1ccncc1)c1ccc(O)cc1O | 8 | > 100 | > 100 | > 100 | 63.4 | > 100 | > 100 | > 100 | > 100 | 20.5 | 2.37 | 3.8 | 3.16 | 8.09 | 4.89 | 5.03 | 12.2 | 9.26 | 6.48 | 2.82
10 | COc1ccc(Nc2ncccc2C(=O)NCc2cn(Cc3cccc(Oc4ccccc4)c3)nn2)cc1 | > 100 | 7.93 | > 100 | 15.4 | > 100 | 4.34 | 7.16 | > 100 | > 100 | > 100 | 3.41 | 2.86 | 4.17 | 3.66 | 5.89 | 1.71 | 2.59 | 3.88 | 4.75 | 3
11 | O=c1cccc(C#CC#C/C=C/CO)o1 | 3.6 | 3.56 | > 100 | > 100 |  | 4.69 | 7.03 | 10.9 | 4.19 |  | 1.91 | 2.02 | 5.71 | 3.89 | 2.82 | 1.99 | 2.38 | 2.75 | 1.74 | 2.6
12 | C[C@]12CC[C@H]3[C@@H](C[C@@H]4N=C(c5ccc(O)cc5)S[C@@]45C[C@H](O)CC[C@]35C)[C@@H]1CC[C@@H]2O | > 100 | > 100 | 27.4 | 20.4 | > 100 | > 100 | 1.31 | 66 |  | 20.4 | 4.12 | 9.14 | 2.37 | 3.13 | 11.1 | 16.4 | 0.377 | 3.05 |  | 2.48
13 | Nc1nc2c(c3cnccc13)C(c1cccc(Cl)c1)Cc1cnccc1-2 (configuration not stated) | 15.5 | 0.872 | 11.3 | 2.56 | 15.3 | 1.46 | 0.765 | 20.6 | 14.4 | 14.8 | 0.434 | 0.296 | 0.448 | 0.336 | 0.644 | 0.21 | 0.268 | 2.6 | 0.668 | 0.841
14 | CC[C@]12CCCN3CC[C@]4(C(=C(C(=O)OC)C1)Nc1ccccc14)[C@@H]32 | 32.8 | 35.7 | 33 | 33.9 | 45.6 | 41 | 30.4 | 64.7 | 33.2 | 24.1 | 11.8 | 16.9 | 14.6 | 14.1 | 16.8 | 11.1 | 15.5 | 21.3 | 16.4 | 10.9
15 | O=C1OC2C(O)C(=O)OC2C1O (configuration not stated) | > 100 | > 100 | > 100 | > 100 | > 100 | > 100 | > 100 | > 100 | > 100 | > 100 |  |  |  |  |  |  |  |  |  | 
16 | CCCCCCCCCC(CCCC(O)CC(=O)O)OC1OC(COC2OC(C)C(O)C(O)C2O)C(O)C(O)C1OC1OC(CO)C(O)C(O)C1OC1OC(C)C(O)C(O)C1O (configuration not stated) | > 40 | > 40 | > 40 | > 40 | > 40 | > 40 | > 40 | > 40 | > 40 | > 40 | > 40 | > 40 | > 40 | > 40 | > 40 | > 40 | > 40 | > 40 | > 40 | > 40
17 | Cc1ccc(S(=O)(=O)n2cc(-c3nnnn3-c3ccc(Cl)cc3)c(=O)c3ccccc32)cc1 | > 100 | > 100 | > 100 | > 100 | > 100 | > 100 | > 100 | > 100 | > 100 | > 100 | > 100 | 93 | 45.9 | 57.7 | > 100 | > 100 | 29.6 | > 100 | > 100 | 52.5
18 | CCCN1CCN(c2ccc3nc(-c4ccc5nc(-c6ccc(OCC)c(OCC)c6)[nH]c5c4)[nH]c3c2)CC1 | 3.28 | 1.4 | 1.19 | 1.66 | 2.42 | 1.81 | 0.83 | 2.19 | 2.14 | 3.32 | 1.02 | 0.164 | 0.218 | 0.294 | 0.475 | 0.532 | 0.27 | 0.755 | 0.526 | 1.58
19 | N=c1ccn2c(n1)O[C@@H]1[C@@H](O)[C@H](CO)O[C@@H]12 | > 100 | > 100 | > 100 | > 100 | > 100 | > 100 | > 100 | > 100 | > 100 | 20.8 |  | 2.41 | 0.519 | 17 | 11 | 4.13 | 18.1 | 4.89 | 2.86 | 1.31
20 | O=C1C(Cl)=C(Nc2cccc(O)c2)C(=O)N1c1cccc(Cl)c1Cl | 20.2 | 38.9 | 23.2 | 58.3 | 23.4 | 43.1 | 42.4 | > 100 | 28.2 | > 100 | 3.14 | 15.3 | 11.2 | 18.5 | 5.96 | 17.9 | 18.4 | 24.4 | 14.5 | 23.3
21 | C=C1C(=O)OC2/C=C(\C)C3OC3/C=C(/C(=O)OC)C(OC(C)=O)C(OC(=O)C(C)(O)C(C)OC(C)=O)C12 (configuration not stated) | 16.3 | 8.97 | 6.14 | 2.88 | 5.71 | 4.84 | 1.35 | 6.14 | 7.02 | 15 |  |  |  |  |  |  |  |  |  | 
22 | C=C(CN1CCN(c2cccc(F)c2)CC1)c1ccc(C(=O)Nc2ccccc2N)cc1 | 7.74 | 9.09 | 12.5 | 4.06 | 3.9 | 1.74 | 6.09 | 38.6 | > 100 | 10.2 | 0.629 | 2.93 | 1.08 | 1.09 | 0.333 | 0.283 | 0.563 | 0.676 | 2.74 | 1.31
23 | CSc1nc2c(c(=O)[nH]1)C(c1ccc(Cl)cc1)C1=C(N2)/C(=C/c2ccc(Cl)cc2)CNC1 (configuration not stated) | 5.09 | 3.53 | 3.55 | 5.09 | 7.04 | 3.69 | 3.42 | 6.47 | 4.7 | 2.91 | 2.11 | 1.91 | 1.72 | 2.05 | 2.56 | 1.79 | 1.65 | 2.3 | 2.06 | 1.43
24 | COc1ccc(-c2nocc2-c2cc(OC)c(OC)c(OC)c2)cc1 | > 100 | 1.24 | 13.1 | 4.76 | > 100 | 0.13 | 0.797 | > 89.9 | > 96.2 | 29 | 0.236 | 0.0531 | 0.0412 | 0.0379 | 0.346 | 0.0239 | 0.14 | 6.9 | 0.942 | 0.54
25 | O=S(=O)(NCCCNc1cc(-c2cn(-c3ccccc3)nc2-c2cccc(O)c2)ccn1)c1ccc(Cl)cc1 | 12 | 3.16 | 3.29 | 1.7 | 13.2 | 3.2 | 2.8 |  | 6.09 | 8.64 | 2.3 | 1.57 | 1.57 | 0.471 | 2.96 | 1.64 | 0.846 |  | 2.23 | 2.03
